A short description of data set [1]: Research on compound microsome: prototype remaining and transformation to Atrasentan in human liver microsomes (+NADPH). The following applies: for Prototype remaining quantity (%) Mean: human liver microsome (+NADPH), 37° C. The data set is classed as in vitro ADME. As for the experimental part:
Human liver microsomes were all purchased from Rild Liver Disease Research (Shanghai) Co., Ltd.
Reagents: dimethyl sulfoxide (DMSO), acetonitrile, formic acid, and propranolol (internal standard) are all commercially available.
Instrument: Thermo Fisher Scientific LC-MS (U300 UPLC, TSQ QUANTUMN ULTRA triple quadrupole mass spectrometer).
A certain amount of compound was precisely weighed and dissolved in DMSO to prepare a 10 mM stock solution, and the stock solution was diluted with a diluent (ACN:H2O=1:1) to a 100 μM working solution, and then diluted with a 0.1 M potassium phosphate buffer solution to a 3 μM administration solution for later use. 75 μL of liver microsomes were taken and added into 925 μL of a 0.1 M potassium phosphate buffer solution to be mixed uniformly to obtain a 1.5 mg/mL liver microsome suspension, and the liver microsome suspension was pre-incubated at 37° C. for 10 minutes. Preparation at 0 o'clock: 15 μL of the above liver microsome suspension was taken and added into a 6 mM NADPH solution, 150 μL of a propranolol acetonitrile solution was added immediately for precipitation, and then 15 μL of the above administration solution was added and mixed uniformly for later use. Preparation of samples at 20 minutes and 60 minutes: 15 μL of the administration solution was taken, 15 μL of the liver microsome suspension and 15 μL of the 6 mM NADPH solution were added and mixed uniformly, and a mixture was incubated at 37° C. for 20 minutes and 60 minutes, respectively. The preparation of the above samples was carried out using dual-pore parallel operation. When the above samples are incubated to the relevant time point, 150 μL of the propranolol acetonitrile solution was added to terminate the reaction. All the above samples were centrifuged at 4000 rpm for 5 minutes, and 100 μL of a supernatant was taken, added into 100 μL of ultrapure water and mixed uniformly for LC-MS/MS analysis. LC-MS/MS detection conditions are as follows:
Chromatographic column: Waters ACQUITY™ PREMIER HSS T3, 50*2.1 mm, 1.8 μm.
(§1) Mobile phase: water (0.1% formic acid)—acetonitrile. Perform gradient elution according to the table below.
An initial 0 o'clock was taken as 100%, a relative residual content of the drug at each time point was calculated, and each time point of Atrasentan was taken as 100% to calculate the relative amount of transformation of the compound in the embodiment to Atrasentan.

Data set [2] is described as follows: Pharmacokinetic study of compound in rats (Embodiment 13), intragastric administration. Type of data set: in vivo. The following applies: SD rats.
Description: (§2) SD rats: male, 200-300 g, purchased from Beijing Vital River Laboratory Animal Technology Co., Ltd.
(§3) Reagents: dimethyl sulfoxide (DMSO), polyethylene glycol 400 (PEG-400), normal saline, heparin, acetonitrile, formic acid, and propranolol (internal standard) are all commercially available.
(§4) Instrument: Thermo Fisher Scientific LC-MS/MS (U300 UPLC, TSQ QUANTUMN ULTRA triple quadrupole mass spectrometer).
(§5) The compound was weighed and dissolved in a DMSO-PEG-400-normal saline (5:60:35, v/v/v) system. After intragastric administration to rats, 200 μL of venous blood was collected in a sodium-fluoride heparinized EP tube at 15 minutes, 30 minutes, 1 hour, 2 hours, 5 hours, 7 hours, and 24 hours after administration and centrifuged at 12000 rpm for 2 minutes. Plasma was taken and frozen and preserved at −80° C. for testing. A certain amount of samples for test was precisely weighed and dissolved in DMSO to 2 mg/mL as a stock solution. An appropriate amount of compound stock solution was accurately sucked, and diluted by adding acetonitrile to prepare a standard series solution. 20 μL of each of the above standard series solution was accurately sucked, 180 μL of blank plasma was added, and vortex mixing was performed to prepare plasma samples equivalent to plasma concentrations of 1 ng/mL, 3 ng/mL, 5 ng/mL, 10 ng/mL, 30 ng/mL, 100 ng/mL, 300 ng/mL, 1000 ng/mL, and 3000 ng/mL. Dual sample analysis was performed for each concentration to establish a standard curve. 30 μL of plasma was taken, 200 μL of an acetonitrile solution of internal standard propranolol (50 ng/mL) was added, vortex mixing was performed, then 100 μL of purified water was added, vortex mixing was performed again, a mixture was centrifuged at 4000 rpm for 5 minutes, and a supernatant was taken for LC-MS/MS analysis. LC-MS/MS detection conditions are as follows: Chromatographic column: Waters ACQUITY™ PREMIER HSS T3, 50*2.1 mm, 1.8 μm.
as §1
After LC-MS/MS detection of blood drug concentration, WinNonlin 6.1 software was used to calculate pharmacokinetic parameters using a non compartmental model method.

The nature of data set [3]: Pharmacokinetic study of compound in rats (Embodiment 14), intragastric administration. Type of data set: in vivo. The note with it: SD rats.
Description: as §2, §3, §4
as §5, with “Dual sample analysis was performed for each concentration to establish a standard curve. 30 μL of plasma was taken, 200 μL of an acetonitrile solution of internal standard propranolol (50 ng/mL) was added, vortex mixing was performed, then 100 μL of purified water was added, vortex mixing was performed again, a mixture was centrifuged at 4000 rpm for 5 minutes, and a supernatant was taken for LC-MS/MS analysis. LC-MS/MS detection conditions are as follows: Chromatographic column: Waters ACQUITY™ PREMIER HSS T3, 50*2.1 mm, 1.8 μm.” left out

Data set [4] is described as follows: Study on stability of salts (chemical stability by HPLC). The data set is classed as physicochemical. The following applies: for Stability (in words): 25° C./60% RH and 40° C./75% RH.
A short description of data set [5]: Study on hygroscopicity by dynamic vapor sorption (DVS). The data set is classed as physicochemical. The note with it: for Hygroscopicity (in words): 25° C.; for Vapor sorption: 25° C./80% RH. Here is the method:
Hygroscopicity of sulphate, phosphate, hydrochloride, and oxalate was evaluated using a dynamic vapor sorption (DVS). The test collected percentage changes in mass of samples under a constant temperature condition of 25° C. with changes in humidity.

With `CCCCN(CCCC)C(=O)CN1C[C@H](c2ccc3c(c2)OCO3)[C@@H](C(=O)OC(C)OC(=O)OC(C)C)[C@@H]1c1ccc(OC)cc1` (stereo partly drawn) [Compound 3, 1-[(isopropoxycarbonyl)oxy]ethyl-(2R,3R,4S)-4-(benzo[d][1,3]dioxolane-5-yl)-1-[2-(dibutylamino)-2-oxoethyl]-2-(4-methoxyphenyl)pyrrolidine-3-carboxylate], the “Prototype remaining quantity (%) Mean” value was found to be 100.0% in data set [1] (time 0 min (taken as 100%)), 0.04% in data set [1] (time 20 min) and 0.06% in data set [1] (time 60 min). In addition, the “Conversion into Atrasentan in human microsomes (in words)” value in data set [1] (human liver microsomes) is “fully converted into Atrasentan”. Moreover, the “Absorption after intragastric administration compared with Atrasentan (in words)” value (“Absorption … compared with Atrasentan (in words)” for short) in data set [2] is recorded as “better than that of Atrasentan”. Besides, the “Exposure level in rats compared with the same dosage of Atrasentan (in words)” value in data set [2] is recorded as “higher than those of the same dosage of Atrasentan”.
Turning to `CCCCN(CCCC)C(=O)CN1C[C@H](c2ccc3c(c2)OCO3)[C@@H](C(=O)OC(C)OC(=O)OC)[C@@H]1c1ccc(OC)cc1` (stereo partly drawn) [Compound 4, 1-[(methoxycarbonyl)oxy]ethyl-(2R,3R,4S)-4-(benzo[d][1,3]dioxolane-5-yl)-1-[2-(dibutylamino)-2-oxoethyl]-2-(4-methoxyphenyl)pyrrolidine-3-carboxylate], the entries for the “Prototype remaining quantity (%) Mean” value in data set [1] (time 0 min (taken as 100%)), in data set [1] (time 20 min) and in data set [1] (time 60 min) were 100.0%, 0% and 0%, respectively. The “Absorption … compared with Atrasentan (in words)” value in data set [2] was “better than that of Atrasentan”. Besides, the “Exposure level in rats compared with the same dosage of Atrasentan (in words)” value in data set [2] was “higher than those of the same dosage of Atrasentan”.
Take `CCCCN(CCCC)C(=O)CN1C[C@H](c2ccc3c(c2)OCO3)[C@@H](C(=O)OC(C)OC(=O)OC2CC2)[C@@H]1c1ccc(OC)cc1` (stereo partly drawn) [Compound 7, 1-[(cyclopropoxycarbonyl)oxy]ethyl-(2R,3R,4S)-4-(benzo[d][1,3]dioxolane-5-yl)-1-[2-(dibutylamino)-2-oxoethyl]-2-(4-methoxyphenyl)pyrrolidine-3-carboxylate]: the results for the “Prototype remaining quantity (%) Mean” value in data set [1] (time 0 min (taken as 100%)), in data set [1] (time 20 min) and in data set [1] (time 60 min) were 100.0%, 0.10% and 0.47%, respectively. For the same compound, in data set [3], the “Absorption … compared with Atrasentan (in words)” value is reported as “not as good as that of Atrasentan”. Further, the “Exposure level in rats compared with the same dosage of Atrasentan (in words)” value in data set [3] is given as “significantly lower than that of the same dosage of Atrasentan”.
Regarding `CCCCN(CCCC)C(=O)CN1C[C@H](c2ccc3c(c2)OCO3)[C@@H](C(=O)OC(C)OC(=O)OC(C)C)[C@@H]1c1ccc(OC)cc1.O=C(O)C(=O)O` (stereo partly shown) [Oxalate], the “Stability (in words)” value in data set [4] (one week) is on record as “good stability”. Besides, the “Purity (area %)” value worked out at 99.39 area % in data set [4] (25° C./60% RH, one week); 98.52 area % in data set [4] (40° C./75% RH, one week); 99.56 area % in data set [4] (Start). Besides, in data set [5], the “Hygroscopicity (in words)” value is recorded as “lower hygroscopicity”. Besides, the Vapor sorption in data set [5] came out at 0.96%.
Take `CCCCN(CCCC)C(=O)CN1C[C@H](c2ccc3c(c2)OCO3)[C@@H](C(=O)OC(C)OC(=O)OC(C)C)[C@@H]1c1ccc(OC)cc1` (stereo partly shown) [Phosphate]: the “Stability (in words)” value in data set [4] (one week) is recorded as “good stability”. Moreover, the “Purity (area %)” value was 98.81 area % in data set [4] (25° C./60% RH, one week); 95.49 area % in data set [4] (40° C./75% RH, one week); 99.29 area % in data set [4] (Start). In data set [5], the “Hygroscopicity (in words)” value was “lower hygroscopicity”. In data set [5], the Vapor sorption was 1.52%.

The values above are taken from patent US20250320198A1, “SALT OF ENDOTHELIN A (ETA) RECEPTOR ANTAGONIST COMPOUND, AND PREPARATION METHOD THEREFOR AND MEDICAL USE THEREOF” (SHENZHEN SALUBRIS PHARMACEUTICALS CO., LTD, priority 2022, published 2025).
